Results on five compounds are retold here after patent US6471973B2 (Coletica, priority 1998, dated 2002).

The conditions of data set [1]: in vivo.
Method: This preparation is used for the following toxicity studies:
The tests were performed by the official method in accordance with the decree of Feb.
Data set [2] is described as follows: Determination of the free radical inhibiting activity in vitro. To be noted: 30 minutes; for % free radical inhibiting activity: dissolved in ethoxydiglycol, control subtracted; for Free radical inhibiting activity: compound at 25 mM, dissolved in DMSO, DMSO control subtracted. The method, then: A 60 μM solution of 1,1-diphenyl-2-picrylhydrazyl in ethanol is placed in contact, for 30 minutes at room temperature, with a sample originating from the products of the invention whose free radical inhibiting power is to be determined. […] The higher the percentage decrease, the stronger will be the free radical inhibiting activity of the active ingredient tested.

The target of data set [3] is T1, human leukocytic elastase (Homo sapiens, UniProt P08246).
T1 sequence (P08246 30-267): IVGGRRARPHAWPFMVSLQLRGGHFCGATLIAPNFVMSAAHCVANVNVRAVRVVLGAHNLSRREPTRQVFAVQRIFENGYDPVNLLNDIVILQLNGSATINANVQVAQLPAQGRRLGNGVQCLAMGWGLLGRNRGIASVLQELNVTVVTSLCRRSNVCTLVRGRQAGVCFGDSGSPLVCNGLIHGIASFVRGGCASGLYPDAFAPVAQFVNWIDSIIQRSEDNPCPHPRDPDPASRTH
Nature of the data set: Determination of the anti-elastase activity (elastin-rhodamine, fluorescence). Format: biochemical. To be noted: solubilized in ethoxydiglycol, 20 min at 37° C. On the procedure:
The enzymatic substrate elastin-rhodamine is dissolved in TrisHCl buffer (31.52 g of TrisHCl, water qsp 1000 ml) of pH 8.8 at a rate of 15 mg/ml. 1 mg of human leukocytic elastase is dissolved in 20 ml of TrisHCl buffer. The products of the invention are evaluated for their capacity to inhibit the degradation of elastin, which can be followed by fluorescence (excitation at 530 nm; emission at 590 nm) after the incubation, for 20 min at 37° C., of a mixture comprising the substrate, the enzyme and the inhibitor to be tested. The results are given as % inhibition relative to the inhibitor-free control.

Data set [4] is described as follows: Oxidation stability test on flavonoids in simple preparations (color of solutions). Format: physicochemical. To be noted: 0.103 M in ethoxydiglycol, Pantone color. On the procedure: A solution of […] containing 31.1 g/l (i.e. 0.103 M) is prepared in ethoxy-diglycol. The pH is adjusted to 5 or 6 and then 10 g/l of a preservative based on parabens are added to the mixture in order to avoid bacterial pollution. […] At identical molar concentrations, the two products are therefore compared for their oxidation stability, the color parameters being used as the stability indicators. The color references given in the Examples which follow refer to the Pantone colors as used in all the paint color charts well known to those skilled in the art.

A short description of data set [5]: Oxidation stability test on flavonoids in complex preparations (emulsions). To be noted: 45° C. Format: physicochemical. On the procedure:
Oxidation stability test on flavonoids in complex preparations (emulsions) Composition of the formulation: [table] After studying the stabilities over about 1 month, it can be said that the color of the formulations containing flavonoids used in the form which has not been rendered lipophilic undergoes an extremely unfavorable change at 45° C.

Setting [6] is: test concentration 1.03^−3 mol/l.
The mark [7] stands for this setting: test concentration 1.03^−4 mol/l.
Setting [8] is: test concentration 1.03^−5 mol/l.

In the case of `CCCC(=O)Oc1cc(OC(=O)CCC)c2c(c1)OC(c1ccc(OC)c(OC(=O)CCC)c1)CC2=O` (stereo not shown) [Example 12, hesperitin triacylated by C4], in data set [1], the Skin irritation entry was “did not cause any irritation phenomena”.
For `COc1ccc([C@@H]2CC(=O)c3c(O)cc(O)cc3O2)cc1O` [Hesperitin, hesperitin], the figures for the “% free radical inhibiting activity” value in data set [2] (0.103 mol/l), in data set [2] (1.03^−3 mol/l) and in data set [2] (1.03^−5 mol/l) were 94%, 28% and 8%, respectively. Further, in data set [2], the “Free radical inhibiting activity” value came to 42%. The “Anti-elastase test: % inhibition relative to the inhibitor-free control” value in data set [3] (setting [6]) is 20%; in data set [3] (setting [7]), 24%; in data set [3] (setting [8]), 0%. Further, the “Color of the solutions 1 day after manufacture” value in data set [4] (pH 5, 4° C.) turned out to be 157C; in data set [4] (pH 5, 20° C.), 157C; in data set [4] (pH 5, 45° C.), 157C; in data set [4] (pH 6, 4° C.), 157C; in data set [4] (pH 6, 20° C.), 157C; in data set [4] (pH 6, 45° C.), 157C. The “Color of the solutions 21 days after manufacture” value is on record as “black +” in data set [4] (pH 5, 4° C.); “black +” in data set [4] (pH 5, 20° C.); “black +” in data set [4] (pH 5, 45° C.); “black +” in data set [4] (pH 6, 4° C.); “black +” in data set [4] (pH 6, 20° C.); “black +” in data set [4] (pH 6, 45° C.). The “Stability test: color of cream, T 1 day” value in data set [5] (520 μM in cream (emulsion)) is “light beige”; in data set [5] (1043 μM in cream (emulsion)), “more”. The “Stability test: color of cream, T 7 days” value in data set [5] (520 μM in cream (emulsion)) is “yellow”; in data set [5] (1043 μM in cream (emulsion)) it was “very yellow”. Also, the “Stability test: color of cream, T 25 days” value is listed as “yellow” in data set [5] (520 μM in cream (emulsion)) and “very yellow” in data set [5] (1043 μM in cream (emulsion)). Moreover, the “Stability test: color of cream, T 35 days” value in data set [5] (520 μM in cream (emulsion)) is recorded as “yellow”; in data set [5] (1043 μM in cream (emulsion)) it was “very yellow”.
As to “Hesperitin monoacylated by C12 [Example 7]”, the “Anti-elastase test: % inhibition relative to the inhibitor-free control” value was 100% in data set [3] (test concentration 0.103 mol/l), 50% in data set [3] (setting [6]), 36% in data set [3] (setting [7]) and 34% in data set [3] (setting [8]).
Take “hesperitin diacylated by C12 [Example 6]”: the “Free radical inhibiting activity” value in data set [2] turned out to be 67%. The entries for the “Anti-elastase test: % inhibition relative to the inhibitor-free control” value in data set [3] (test concentration 0.103 mol/l), in data set [3] (setting [6]) and in data set [3] (setting [8]) were 100%, 65% and 29%, respectively.
Take “hesperitin triacylated by C18:2 [Example 15]”: the Skin irritation result in data set [1] is “did not cause any irritation phenomena”.
